{"source": "patent US20240287076A1", "about": "“COMPOUNDS FOR TARGETING DEGRADATION OF BRUTON'S TYROSINE KINASE” (BIOGEN MA INC., priority 2021, published 2024)", "data": [{"target": "T1, BTK (Homo sapiens, UniProt Q06187)", "T1 construct": "The GM01501.3 cell line endogenously expresses BTK with a HiBiT fusion tag via CRISPR knock-in at its C-terminal region; endogenous in cells; host or cells: GM01501.3 (GM01501 cells engineered by CRISPR knock-in of HiBiT at the BTK locus)", "T1 sequence (Q06187 whole entry, the tested form may be a part)": "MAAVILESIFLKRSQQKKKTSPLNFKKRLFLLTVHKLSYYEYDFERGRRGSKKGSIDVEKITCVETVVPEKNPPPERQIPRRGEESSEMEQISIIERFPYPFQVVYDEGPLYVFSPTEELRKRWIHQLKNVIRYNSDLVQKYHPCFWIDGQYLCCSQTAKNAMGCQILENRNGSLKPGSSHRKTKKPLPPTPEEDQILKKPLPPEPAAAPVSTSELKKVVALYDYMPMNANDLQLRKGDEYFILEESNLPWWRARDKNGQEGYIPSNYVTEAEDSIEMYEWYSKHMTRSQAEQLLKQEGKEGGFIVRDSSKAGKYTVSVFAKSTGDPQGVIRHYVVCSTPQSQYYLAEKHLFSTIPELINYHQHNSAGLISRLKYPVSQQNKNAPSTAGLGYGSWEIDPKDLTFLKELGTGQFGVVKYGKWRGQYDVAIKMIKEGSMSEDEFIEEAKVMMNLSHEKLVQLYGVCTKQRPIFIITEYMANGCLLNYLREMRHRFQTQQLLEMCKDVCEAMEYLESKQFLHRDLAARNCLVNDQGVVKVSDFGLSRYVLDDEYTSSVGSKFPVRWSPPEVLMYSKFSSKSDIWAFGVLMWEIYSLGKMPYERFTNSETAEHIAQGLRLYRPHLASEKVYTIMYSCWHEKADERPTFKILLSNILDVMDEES", "assay": "BTK degradation assay using the HiBiT Method (Nano-Glo HiBiT Lytic Assay, GM01501.3 cells)", "format": "cell-based", "conditions": "HiBiT Degradation on GM01501.3 BTK @ 6 hours", "summary_of_the_method": "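Degradation read-out: HiBiT luminescence after lytic reagent addition, giving DC50. Compounds dosed from 10 μM in 11 half-log steps (duplicate) onto GM01501.3 cells, whose endogenous BTK carries a C-terminal HiBiT knock-in tag; 6 h exposure, 37 °C, 5% CO2.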", "units": {"DC50": "nM"}, "values": [{"compound": "Cc1cc(-c2ncnn3cc(-c4ccc(CN5CCC(c6ccc(NC7CCC(=O)NC7=O)cc6)CC5)cc4)cc23)ccc1CNC(=O)c1noc(C(C)(C)C)n1", "note": "(single isomer, unassigned; isomer 2) [Example 3, 5-tert-butyl-N-[[4-[6-[4-[[4-[4-[(2,6-dioxo-3-piperidyl)amino]phenyl]-1-piperidyl]methyl]phenyl]pyrrolo[2,1-f][1,2,4]triazin-4-yl]-2-methyl-phenyl]methyl]-1,2,4-oxadiazole-3-carboxamide isomer 2]", "DC50": "< 100"}, {"compound": "CC(C)(C)c1nc(C(=O)NCc2ccc(-c3ncnn4cc(CCN5CCC(c6ccc(NC7CCC(=O)NC7=O)cn6)CC5)cc34)cc2F)no1", "note": "(centres unmarked) [Example 122, 5-tert-butyl-N-[[4-[6-[2-[4-[5-[(2,6-dioxo-3-piperidyl)amino]-2-pyridyl]-1-piperidyl]ethyl]pyrrolo[2,1-f][1,2,4]triazin-4-yl]-2-fluoro-phenyl]methyl]-1,2,4-oxadiazole-3-carboxamide]", "DC50": "< 100"}, {"compound": "Cc1cc(-c2ncnn3cc(-c4nccc(CN5CCC(c6ccc(C7CCC(=O)NC7=O)cc6)CC5)n4)cc23)ccc1CNC(=O)c1noc(C(C)(C)C)n1", "note": "(centres unmarked) [Example 215, 5-(tert-butyl)-N-(4-(6-(4-((4-(4-(2,6-dioxopiperidin-3-yl)phenyl)piperidin-1-yl)methyl)pyrimidin-2-yl)pyrrolo [2,1-f][1,2,4]triazin-4-yl)-2-methylbenzyl)-1,2,4-oxadiazole-3-carboxamide]", "DC50": "< 100"}, {"compound": "Cc1cc(-c2ncnn3cc(CN(C)CCN4CCC(c5ccc(C6CCC(=O)NC6=O)cc5)CC4)cc23)ccc1CNC(=O)c1noc(C(C)(C)C)n1", "note": "(centres unmarked) [Example 125, 5-tert-butyl-N-[[4-[6-[[2-[4-[4-(2,6-dioxo-3-piperidyl)phenyl]-1-piperidyl]ethyl-methyl-amino]methyl]pyrrolo[2,1-f][1,2,4]triazin-4-yl]-2-methyl-phenyl]methyl]-1,2,4-oxadiazole-3-carboxamide]", "DC50": "< 100"}, {"compound": "CC(C)(C)c1nc(C(=O)NCc2ccc(-c3ncnn4cc(-c5ccc(OCCN6CCC(n7ccc(NC8CCC(=O)NC8=O)n7)CC6)cc5)cc34)cc2F)no1", "note": "(centres unmarked) [Example 108, 5-tert-butyl-N-[[4-[6-[4-[2-[4-[3-[(2,6-dioxo-3-piperidyl)amino]pyrazol-1-yl]-1-piperidyl]ethoxy]phenyl]pyrrolo[2,1-f][1,2,4]triazin-4-yl]-2-fluoro-phenyl]methyl]-1,2,4-oxadiazole-3-carboxamide]", "DC50": "< 100"}, {"compound": "Cc1cc(-c2ncnn3cc(-c4ccc(CN(C)CCCc5ccc(NC6CCC(=O)NC6=O)cc5)cc4)cc23)ccc1CNC(=O)c1noc(C(C)(C)C)n1", "note": "(centres unmarked) [Example 11, 5-tert-butyl-N-[[4-[6-[4-[[3-[4-[(2,6-dioxo-3-piperidyl)amino]phenyl]propyl-methyl-amino]methyl]phenyl]pyrrolo[2,1-f][1,2,4]triazin-4-yl]-2-methyl-phenyl]methyl]-1,2,4-oxadiazole-3-carboxamide]", "DC50": "< 100"}, {"compound": "Cc1cc(-c2ncnn3cc(N4CCN(C(=O)CC(C)(C)CNC(=O)c5ccc(OC6CCC(=O)NC6=O)cc5)CC4)cc23)ccc1CNC(=O)c1noc(C(C)(C)C)n1", "note": "(centres unmarked) [Example 192, 5-(tert-butyl)-N-(4-(6-(4-(4-(4-((2,6-dioxopiperidin-3-yl)oxy)benzamido)-3,3-dimethylbutanoyl)piperazin-1-yl)pyrrolo[2,1-f][1,2,4]triazin-4-yl)-2-methylbenzyl)-1,2,4-oxadiazole-3-carboxamide]", "DC50": "< 100"}, {"compound": "Cn1nc(N2CCC(=O)NC2=O)c2ccc(C3CCN(Cc4ccc(-c5cc6c(-c7ccc(CNC(=O)c8noc(C(C)(C)C)n8)c(F)c7)ncnn6c5)cc4F)CC3)cc21", "note": "[Example 33, 5-tert-butyl-N-[[4-[6-[4-[[4-[3-(2,4-dioxohexahydropyrimidin-1-yl)-1-methyl-indazol-6-yl]-1-piperidyl]methyl]-3-fluoro-phenyl]pyrrolo[2,1-f][1,2,4]triazin-4-yl]-2-fluoro-phenyl]methyl]-1,2,4-oxadiazole-3-carboxamide]", "DC50": "< 100"}, {"compound": "Cc1cc(-c2ncnn3cc(CCN4CCC(c5ccc6c(N7CCC(=O)NC7=O)nn(C)c6c5)C(F)(F)C4)cc23)ccc1CNC(=O)c1noc(C(C)(C)C)n1", "note": "(centres unmarked) [Example 253, 5-(tert-butyl)-N-(4-(6-(2-(4-(3-(2,4-dioxotetrahydropyrimidin-1(2H)-yl)-1-methyl-1H-indazol-6-yl)-3,3-difluoropiperidin-1-yl)ethyl)pyrrolo[2,1-f][1,2,4]triazin-4-yl)-2-methylbenzyl)-1,2,4-oxadiazole-3-carboxamide]", "DC50": "< 100"}, {"compound": "Cc1cc(-c2ncnn3cc(-c4ccc(CN5CCC(c6ccc(NC7CCC(=O)NC7=O)cc6)CC5)cc4C)cc23)ccc1CNC(=O)c1noc(C(C)(C)C)n1", "note": "(centres unmarked) [Example 17, 5-tert-butyl-N-[[4-[6-[4-[[4-[4-[(2,6-dioxo-3-piperidyl)amino]phenyl]-1-piperidyl]methyl]-2-methyl-phenyl]pyrrolo[2,1-f][1,2,4]triazin-4-yl]-2-methyl-phenyl]methyl]-1,2,4-oxadiazole-3-carboxamide]", "DC50": "< 100"}, {"compound": "CC(C)(C)OC1CN(C(=O)NCc2ccc(-c3ncnn4cc(-c5ccc(CN6CCC(c7ccc(NC8CCC(=O)NC8=O)cn7)CC6)cc5)cc34)cc2F)C1", "note": "(centres unmarked) [Example 100, 3-tert-butoxy-N-[[4-[6-[4-[[4-[5-[(2,6-dioxo-3-piperidyl)amino]-2-pyridyl]-1-piperidyl]methyl]phenyl]pyrrolo[2,1-f][1,2,4]triazin-4-yl]-2-fluoro-phenyl]methyl]azetidine-1-carboxamide]", "DC50": "< 100"}, {"compound": "Cc1cc(-c2ncnn3cc(-c4ccc(CN5CCCC(c6ccc(NC7CCC(=O)NC7=O)cc6)C5)cc4)cc23)ccc1CNC(=O)c1noc(C(C)(C)C)n1", "note": "(centres unmarked) [Example 7, 5-tert-butyl-N-[[4-[6-[4-[[3-[4-[(2,6-dioxo-3-piperidyl)amino]phenyl]-1-piperidyl]methyl]phenyl]pyrrolo[2,1-f][1,2,4]triazin-4-yl]-2-methyl-phenyl]methyl]-1,2,4-oxadiazole-3-carboxamide]", "DC50": "< 100"}, {"compound": "CC(C)(C)c1nc(C(=O)NCc2ccc(-c3ncnn4cc(CCC(F)CN5CCC(c6ccc(NC7CCC(=O)NC7=O)cc6)CC5)cc34)cc2F)no1", "note": "(centres unmarked) [Example 170, 5-tert-butyl-N-[[4-[6-[4-[4-[4-[(2,6-dioxo-3-piperidyl)amino]phenyl]-1-piperidyl]-3-fluoro-butyl]pyrrolo[2,1-f][1,2,4]triazin-4-yl]-2-fluoro-phenyl]methyl]-1,2,4-oxadiazole-3-carboxamide]", "DC50": "< 100"}, {"compound": "Cc1cc(-c2ccnc3cn(-c4ccc(CN5CCC(c6ccc(NC7CCC(=O)NC7=O)cc6)CC5)cc4)nc23)ccc1CNC(=O)c1noc(C(C)(C)C)n1", "note": "(centres unmarked) [Example 223, 5-tert-butyl-N-[[4-[2-[4-[[4-[4-[(2,6-dioxo-3-piperidyl)amino]phenyl]-1-piperidyl]methyl]phenyl]pyrazolo[4,3-b]pyridin-7-yl]-2-methyl-phenyl]methyl]-1,2,4-oxadiazole-3-carboxamide]", "DC50": "< 100"}, {"compound": "Cc1cc(-c2ncnn3cc(-c4ccc5c(c4)CN(CCCc4ccc(NC6CCC(=O)NC6=O)cc4)CC5)cc23)ccc1CNC(=O)c1noc(C(C)(C)C)n1", "note": "(centres unmarked) [Example 59, 5-tert-butyl-N-[[4-[6-[2-[3-[4-[(2,6-dioxo-3-piperidyl)amino]phenyl]propyl]-3,4-dihydro-1H-isoquinolin-7-yl]pyrrolo[2,1-f][1,2,4]triazin-4-yl]-2-methyl-phenyl]methyl]-1,2,4-oxadiazole-3-carboxamide]", "DC50": "< 100"}, {"compound": "Cc1cc(-c2ncnn3cc(-c4ccc(CN5CCC(c6ccc(NC7CCC(=O)NC7=O)cc6)CC5)cc4)cc23)ccc1CNC(=O)C12CC(C(C)(C)C)(C1)C2", "note": "(centres unmarked) [Example 75, 3-tert-butyl-N-[[4-[6-[4-[[4-[4-[(2,6-dioxo-3-piperidyl)amino]phenyl]-1-piperidyl]methyl]phenyl]pyrrolo[2,1-f][1,2,4]triazin-4-yl]-2-methyl-phenyl]methyl]bicyclo[1.1.1]pentane-1-carboxamide]", "DC50": "< 100"}, {"compound": "Cc1cc(-c2ncnn3cc(OC[C@@H](F)CN4CCN(c5ccc(NC6CCC(=O)NC6=O)cn5)CC4)cc23)ccc1CNC(=O)c1noc(C(C)(C)C)n1", "note": "(stereo partly drawn) [Example 296, 5-(tert-butyl)-N-(4-(6-((2S)-3-(4-(5-((2,6-dioxopiperidin-3-yl)amino)pyridin-2-yl)piperazin-1-yl)-2-fluoropropoxy)pyrrolo[2,1-f][1,2,4]triazin-4-yl)-2-methylbenzyl)-1,2,4-oxadiazole-3-carboxamide]", "DC50": "< 100"}, {"compound": "Cc1cc(-c2ncnn3cc(-c4ccc(CN5CCC(c6ccc(NC7CCC(=O)NC7=O)cc6)CC5)cc4)cc23)ccc1CNC(=O)c1ncc(C(C)C)cc1F", "note": "(centres unmarked) [Example 76, N-[[4-[6-[4-[[4-[4-[(2,6-dioxo-3-piperidyl)amino]phenyl]-1-piperidyl]methyl]phenyl]pyrrolo[2,1-f][1,2,4]triazin-4-yl]-2-methyl-phenyl]methyl]-3-fluoro-5-isopropyl-pyridine-2-carboxamide]", "DC50": "< 100"}, {"compound": "Cc1cc(-c2ncnn3cc(CCN4CCC(c5ccc(C6CCC(=O)NC6=O)cc5)CC4)cc23)ccc1CNC(=O)c1noc(C(C)(C)C)n1", "note": "(centres unmarked) [Example 116, 5-tert-butyl-N-[[4-[6-[2-[4-[4-(2,6-dioxo-3-piperidyl)phenyl]-1-piperidyl]ethyl]pyrrolo[2,1-f][1,2,4]triazin-4-yl]-2-methyl-phenyl]methyl]-1,2,4-oxadiazole-3-carboxamide]", "DC50": "< 100"}, {"compound": "Cc1cc(-c2ncnn3cc(CCCCN4CCC(c5ccc6c(N7CCC(=O)NC7=O)nn(C)c6c5)C(F)(F)C4)cc23)ccc1CNC(=O)c1noc(C(C)(C)C)n1", "note": "(centres unmarked) [Example 283, 5-(tert-butyl)-N-(4-(6-(4-(4-(3-(2,4-dioxotetrahydropyrimidin-1(2H)-yl)-1-methyl-1H-indazol-6-yl)-3,3-difluoropiperidin-1-yl)butyl)pyrrolo[2,1-f][1,2,4]triazin-4-yl)-2-methylbenzyl)-1,2,4-oxadiazole-3-carboxamide]", "DC50": "< 100"}]}]}
